According to US20190382445A1, “PEPTIDE HAVING MELANOGENESIS-INHIBITING ACTIVITY AND COMPOSITION COMPRISING SAME” (RUBY CROWN CO. LTD., priority 2016, published 2019):
Ends that are not written are not given here.

Key:
B16-F10 cells [1] = test: Melanin content in α-MSH-stimulated B16-F10 cells (absorbance at 475 nm); format: cell-based, murine; conditions: for melanin inhibitory effect of short peptides compared to B6 peptide: concentrations of 100 μM to 10 μM
Protocol: FIG. 2 is an experimental result showing the effect of each hexapeptide on cellular melanin biosynthesis. FIG. 2A represents a peptide wherein the type of amino acids fixed at 3 positions in the amino acid sequence of the amino acids, while the type of amino acids is altered at the other 3 positions. FIG. 2B represents a peptide wherein the amino acid sequence was defined. The cell-based assay in FIG. 2 is conducted by treating B16-F10 cells with a vehicle or peptide at a predetermined concentration, stimulating the same with α-MSH at 100 nM, and measuring absorbance at 475 nm after 72 hours to determine melanin content. Data are expressed in percent (%) as mean ± standard error (mean±SE, n=3) compared to the vehicle control group. In the figures, # means p<0.05 compared to the control group and * means p<0.05 compared to cells stimulated only with α-MSH. The amino acid sequences described in FIG. 2 are all represented in the direction from the amino terminal to the carboxy terminal. An amino functional group (—NH2) shown in the peptide terminal is one added by carboxy terminal amidation used in peptide synthesis.
The cell-based Assay in FIG. 3 is conducted by treating B16-F10 cells with a vehicle or peptide at a predetermined concentration, stimulating the same with 100 nMα-[…], and measuring the absorbance at 475 nm after 72 hours to determine the melanin content. Data are expressed in percent (%) as mean±standard, error (mean±SE, n=3) compared to the vehicle control group. In the figures, # means p<0.05 compared to the control group and * means p<0.05 compared to cells stimulated only with α-MSH. The amino acid sequences described in FIG. 2 are all represented in the direction from the amino terminal to the carboxy terminal. An acetyl group (Ac—) shown in the peptide amino terminal or an amino functional group (—NH2) shown in the carboxy terminal is one added by chemical synthesis of peptide.
(§1) Melanogenesis-inhibitory effects of the analyte (the peptides) was confirmed using the B16-F10 cell line and HEM. B16-F10 cells were treated with a test peptide at different concentrations for 60 minutes and stimulated using a 100 nM α-MSH for 72 hours. While HEM was also treated with the test peptide at different concentrations for 60 minutes and cultured with 100 nM α-MSH or 4.0 mM L-tyrosine while replacing the culture medium every 48 hours for 6 days. Using the culture medium used for culturing cells (conditioned medium), extracellular melanin level was measured. On the other hand, intercellular melanin was extracted with 0.1M NaOH at 60° C. for 60 minutes. A melanin content was determined by measuring an absorbance at 475 nm according to a spectroscopic method. The resultant values were subjected to normalization with respect to the total protein content of the cell.

[2] = tested on: human epidermal melanocytes (HEM); test: Melanin content in HEM stimulated with α-MSH or L-tyrosine; format: cell-based
Text: FIG. 5 is an experimental result showing effects of peptide B6 on cell viability of human epidermal melanocytes (HEM), melanin content and human tyrosinase (TYR) enzymatic activity. […] The intracellular and extracellular melanin contents were normalized with respect to the total protein content. […] Data are expressed in percent (%) as mean±standard error (mean±SE, n=3) compared to the vehicle control group. In the figures, #represents p<0.05 compared to the control group and * represents p<0.05 compared to cells stimulated only with tyrosine.
as §1
(§2) Cell viability was determined by treating the cells with B6 at different concentrations of up to 1 mM for 24 hours (A in FIG. 5). […] Further, effects on melanin content in the cells were examined by pre-treatment of the cells with B6 peptide at different concentrations of up to 300 μM, and then, stimulating the same with α-MSH at 100 nM or tyrosine at 4 mM for […] (B, C in FIG. 5). As a positive control group for melanogenesis inhibition, arbutin was used.

B16-F10 cells [3] = test: Cell viability by MTT assay, B16-F10; format: cell-based, murine; conditions: up to 300 μM, 24 hours (tested up to 1 mM)
Protocol: (§3) Cell viability was determined by 3-(4,5-dimethylthiazol-2-yl)-2,5-diphenyltetrazolium bromide (MTT) assay. B16-F10 cell line and HEM were treated with test peptides at different concentrations for 24 hours. After washing with PBS, the cells were in a culture medium 100 including 1 mg/mL MTT (Amresco, Solon, Ohio, USA) added thereto for 3 hours. After removing the culture medium, formazan accumulated in the cells was […] using isopropanol and subjected to determination of absorbance at 595 nm using a SPECTROstar Nano microplate reader (BMG LABTECH GmbH, Ortenberg, Germany).
Cell viability was determined by treating the cells with B6 at different concentrations up to 1 mM for 24 hours (A in FIG. 4). […] Further, effects on melanin content in the cells were examined by pre-treatment of the cells with B6 peptide at different concentrations of up to 300 μM, and then, stimulating the same with α-MSH at 100 nM for 72 hours (B in FIG. 4).

[4] = tested on: human epidermal melanocytes (HEM); test: Cell viability by MTT assay, HEM; format: cell-based; conditions: up to 300 μM, 24 hours (tested up to 1 mM)
Protocol: as §3, §2

Ser-His-His-Leu-Gly (SHHLG; C3 peptide)
melanogenesis inhibitory effect of short peptide (B16-F10 cells [1]; 100 μM, 100 nM α-MSH, 72 hours): excellent in melanogenesis inhibitory effect

FSHHLG [C1]
melanin inhibitory effect of short peptides compared to B6 peptide (B16-F10 cells [1]; 100 nM α-MSH, 72 hours): melanin inhibitory effect similar to B6 peptide

OC[C@H]1O[C@@H](Oc2ccc(O)cc2)[C@H](O)[C@@H](O)[C@@H]1O [arbutin]
inhibition of increase in melanin content by L-tyrosine ([2]; HEM stimulated with 4 mM L-tyrosine, peptide up to 300 μM): effectively inhibited

Ac-Ser-Tyr-Ser-Met-Glu-His-Phe-Arg-Trp-Gly-Lys-Pro-Val-NH2 (Ac-SYSMEHFRWGKPV-NH2) [α-MSH, agent of melanocortin 1 receptor used to stimulate melanogenesis, reference compound]
melanin content, effect of stimulus (B16-F10 cells [1]; α-MSH alone, B16-F10 cells): increased melanin content | melanogenesis, effect of stimulus α-MSH ([2]; α-MSH at 100 nM, HEM): did not show significant effect on melanogenesis

N[C@@H](Cc1ccc(O)cc1)C(=O)O [L-tyrosine]
extracellular and intracellular melanin contents, effect of stimulus L-tyrosine ([2]; tyrosine at 4 mM, HEM): increased extracellular and intracellular melanin contents

FSHHLG-NH2 [B6, Phe-Ser-His-His-Leu-Gly]
cell viability (B16-F10 cells [3]): did not affect the viability | cell viability [4]: did not affect the viability

Phe-Ser-His-His-Leu (FSHHL; C2 peptide)
melanin inhibitory effect of short peptides compared to B6 peptide (B16-F10 cells [1]; 100 nM α-MSH, 72 hours): did not substantially inhibit melanogenesis
